Like-named read-outs stand apart in the source and are kept apart here.
Columns and labels:
[1] = biological target: GSK3α (GST-full length GSK3α) (Homo sapiens (Human), UniProt P49840); experiment: GSK3α TR-FRET kinase assay; type: biochemical
Summary of the method: (§1)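 Full-length GST-tagged human enzyme (1 nM) is exposed to test compound for 30 min before substrates are added. Phosphorylation of a primed biotinylated glycogen synthase peptide proceeds 100 min at room temperature at low ATP (4 μM α; 2 μM β) or high ATP (1 mM). Product is quantified by TR-FRET.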

[2] = biological target: GSK3b (GST-full length GSK3b) (Homo sapiens (Human), UniProt P49841); experiment: GSK3b TR-FRET kinase assay; type: biochemical
Summary of the method: as §1

[3] = 1 nM GSK3α, 4 μM ATP, 30 minute preincubation, Table 16, read-out: GSK3-A TR-FRET BIOCHEMICAL (TR-FRET)
[4] = 1 nM GSK3b, 2 μM ATP, 30 minute preincubation, Table 16, read-out: GSK3-B TR-FRET BIOCHEMICAL (TR-FRET)
[5] = 1 nM GSK3α, 4 μM ATP, 30 minute preincubation, read-out: GSK3-A TR-FRET BIOCHEMICAL (TR-FRET), IC50
[6] = GSK3-A (TR-FRET 1 mM ATP), GMean, IC50, 1 mM ATP, geometric mean
[7] = 1 nM GSK3b, 2 μM ATP, 30 minute preincubation, read-out: GSK3-B TR-FRET BIOCHEMICAL (TR-FRET), IC50
[8] = GSK3-B (TR-FRET 1 mM ATP), GMean, IC50, 1 mM ATP, geometric mean
[9] = read-out: GSK3-A (TR-FRET 1 mM ATP), GMean, IC50, 1 mM ATP, geometric mean
[10] = read-out: GSK3-B (TR-FRET 1 mM ATP), GMean, IC50, 1 mM ATP, geometric mean

Chain of GSK3b (GST-full length GSK3b) (P49841 whole entry): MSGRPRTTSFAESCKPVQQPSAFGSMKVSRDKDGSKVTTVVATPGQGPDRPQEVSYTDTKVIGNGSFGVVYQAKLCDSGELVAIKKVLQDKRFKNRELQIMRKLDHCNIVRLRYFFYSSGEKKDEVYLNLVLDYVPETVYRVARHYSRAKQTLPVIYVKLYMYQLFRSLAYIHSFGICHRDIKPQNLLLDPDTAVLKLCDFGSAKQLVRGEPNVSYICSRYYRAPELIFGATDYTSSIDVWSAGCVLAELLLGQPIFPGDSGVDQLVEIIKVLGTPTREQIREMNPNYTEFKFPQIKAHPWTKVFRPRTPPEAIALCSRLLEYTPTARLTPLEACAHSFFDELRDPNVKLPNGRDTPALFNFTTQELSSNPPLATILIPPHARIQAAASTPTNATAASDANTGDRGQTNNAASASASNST
Chain of GSK3α (GST-full length GSK3α) (P49840 whole entry): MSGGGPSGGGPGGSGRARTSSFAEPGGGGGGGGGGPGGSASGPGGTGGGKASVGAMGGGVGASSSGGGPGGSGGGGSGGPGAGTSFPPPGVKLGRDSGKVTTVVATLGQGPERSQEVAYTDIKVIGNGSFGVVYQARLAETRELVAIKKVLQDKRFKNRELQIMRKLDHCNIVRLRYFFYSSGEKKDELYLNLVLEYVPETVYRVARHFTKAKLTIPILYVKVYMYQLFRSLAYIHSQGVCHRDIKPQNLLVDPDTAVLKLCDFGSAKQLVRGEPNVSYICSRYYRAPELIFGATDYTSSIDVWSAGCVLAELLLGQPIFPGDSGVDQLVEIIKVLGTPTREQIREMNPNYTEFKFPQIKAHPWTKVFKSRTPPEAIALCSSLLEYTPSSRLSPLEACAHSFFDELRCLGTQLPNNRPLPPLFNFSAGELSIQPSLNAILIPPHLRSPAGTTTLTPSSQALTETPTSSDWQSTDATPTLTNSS

| SMILES | IC50 [1, 3] [µM] | IC50 [2, 4] [µM] | other results |
| --- | --- | --- | --- |
| CC1(C)CC(=O)C2=C(C1)Nc1n[nH]cc1C21CCN(S(=O)(=O)c2ccc(Cl)c(Cl)c2)CC1 [Compound 945660] | ≤ 0.1 | ≤ 0.1 | – |
| CC1(C)CC(=O)C2=C(C1)Nc1n[nH]cc1C21CCN(S(=O)(=O)c2ccc(Cl)cc2)CC1 [Compound 945661] | ≤ 0.1 | ≤ 0.1 | – |
| COc1ccc(S(=O)(=O)N2CCC3(CC2)C2=C(CC(C)(C)CC2=O)Nc2n[nH]cc23)c(C)c1C [Compound 945662] | ≤ 0.1 | 0.1 to 1 | – |
| CC(C)c1nc(S(=O)(=O)N2CCC3(CC2)C2=C(CC(C)(C)CC2=O)Nc2n[nH]cc23)cn1C [Compound 945663] | ≤ 0.1 | ≤ 0.1 | – |
| CCn1nccc1S(=O)(=O)N1CCC2(CC1)C1=C(CC(C)(C)CC1=O)Nc1n[nH]cc12 [Compound 945664] | ≤ 0.1 | ≤ 0.1 | – |
| COc1ccc(F)c(S(=O)(=O)N2CCC3(CC2)C2=C(CC(C)(C)CC2=O)Nc2n[nH]cc23)c1 [Compound 945665] | ≤ 0.1 | ≤ 0.1 | – |
| COc1ccc(S(=O)(=O)N2CCC3(CC2)C2=C(CC(C)(C)CC2=O)Nc2n[nH]cc23)cn1 [Compound 945666] | ≤ 0.1 | ≤ 0.1 | – |
| CC1(C)CC(=O)C2=C(C1)Nc1n[nH]cc1C21CCN(S(=O)(=O)c2ccccc2C(F)(F)F)CC1 [Compound 945667] | ≤ 0.1 | 0.1 to 1 | – |
| CC1(C)CC(=O)C2=C(C1)Nc1n[nH]cc1C21CCN(S(=O)(=O)c2ccccc2OC(F)F)CC1 [Compound 945668] | – | – | IC50 [1, 5]: ≤ 0.1 µM; IC50 [1, 6]: ≤ 0.1 µM; IC50 [2, 7]: ≤ 0.1 µM; IC50 [2, 8]: 0.1 to 1 µM |
| COc1cc(S(=O)(=O)N2CCC3(CC2)C2=C(CC(C)(C)CC2=O)Nc2n[nH]cc23)ccc1Cl [Compound 945669] | ≤ 0.1 | ≤ 0.1 | – |
| CCOc1ccc(S(=O)(=O)N2CCC3(CC2)C2=C(CC(C)(C)CC2=O)Nc2n[nH]cc23)cc1 [Compound 945670] | ≤ 0.1 | ≤ 0.1 | IC50 [1, 6]: 0.1 to 1 µM; IC50 [2, 8]: 1 to 5 µM |
| CCn1ccc(S(=O)(=O)N2CCC3(CC2)C2=C(CC(C)(C)CC2=O)Nc2n[nH]cc23)n1 [Compound 945671] | ≤ 0.1 | ≤ 0.1 | – |
| Cc1ccc(S(=O)(=O)N2CCC3(CC2)C2=C(CC(C)(C)CC2=O)Nc2n[nH]cc23)s1 [Compound 945672] | ≤ 0.1 | ≤ 0.1 | IC50 [1, 6]: 0.1 to 1 µM; IC50 [2, 8]: 0.1 to 1 µM |
| CC(C)Oc1ccc(S(=O)(=O)N2CCC3(CC2)C2=C(CC(C)(C)CC2=O)Nc2n[nH]cc23)cc1 [Compound 945673] | ≤ 0.1 | ≤ 0.1 | – |
| Cc1cc(S(=O)(=O)N2CCC3(CC2)C2=C(CC(C)(C)CC2=O)Nc2n[nH]cc23)c(C)s1 [Compound 945674] | ≤ 0.1 | 0.1 to 1 | – |
| CC(C)Oc1ccc(S(=O)(=O)N2CCC3(CC2)C2=C(CC(C)(C)CC2=O)Nc2n[nH]cc23)cn1 [Compound 945676] | ≤ 0.1 | ≤ 0.1 | – |
| CC1(C)CC(=O)C2=C(C1)Nc1n[nH]cc1C21CCN(S(=O)(=O)c2cnn(C(C)(C)C)c2)CC1 [Compound 945677] | ≤ 0.1 | 0.1 to 1 | – |
| Cc1cc(S(=O)(=O)N2CCC3(CC2)C2=C(CC(C)(C)CC2=O)Nc2n[nH]cc23)ccc1OC(C)C [Compound 945678] | ≤ 0.1 | 0.1 to 1 | – |
| CCn1nc(C)c(S(=O)(=O)N2CCC3(CC2)C2=C(CC(C)(C)CC2=O)Nc2n[nH]cc23)c1C [Compound 945679] | 0.1 to 1 | 1 to 5 | – |
| COc1ccc(S(=O)(=O)N2CCC3(CC2)C2=C(CC(C)(C)CC2=O)Nc2n[nH]cc23)cc1C [Compound 945680] | ≤ 0.1 | ≤ 0.1 | – |
| CCC1(c2cccc(-c3c(C)cncc3C)c2)C2=C(CC(C)(C)CC2=O)Nc2n[nH]cc21 (stereo not shown) [Compound 945703] | ≤ 0.1 | ≤ 0.1 | – |
| CCC1(c2cccc(-c3c(F)cncc3OC)c2)C2=C(CC(C)(C)CC2=O)Nc2n[nH]cc21 (stereo not shown) [Compound 945704] | ≤ 0.1 | ≤ 0.1 | IC50 [1, 9]: ≤ 0.1 µM; IC50 [2, 10]: 0.1 to 1 µM |
| CCC1(c2cccc(C(F)F)c2)C2=C(CC(C)(C)CC2=O)Nc2n[nH]c(C(F)(F)F)c21 (stereo not shown) [Compound 945710] | ≤ 0.1 | ≤ 0.1 | IC50 [1, 9]: ≤ 0.1 µM; IC50 [2, 10]: ≤ 0.1 µM |
| Cn1ccc(S(=O)(=O)N2CC[C@]3(C2)C2=C(CC(C)(C)CC2=O)Nc2n[nH]cc23)n1 [Compound 945712] | – | – | IC50 [1, 5]: ≤ 0.1 µM; IC50 [1, 6]: ≤ 0.1 µM; IC50 [2, 7]: ≤ 0.1 µM; IC50 [2, 8]: 0.1 to 1 µM |
| CCC1(c2cccc(S(=O)(=O)C3CC3)c2)C2=C(CC(C)(C)CC2=O)Nc2n[nH]c(C(F)(F)F)c21 (stereo not shown) [Compound 945713] | ≤ 0.1 | ≤ 0.1 | IC50 [1, 9]: ≤ 0.1 µM; IC50 [2, 10]: ≤ 0.1 µM |
